Source: patent publication US12503438B2, “Compounds for the treatment of kinase-dependent disorders” (Exelixis, Inc., priority 2019, dated 2025)

How the values were obtained:
Assay type in all cases: cell-based
Met = Met (Homo sapiens, UniProt P08581); assay: Met autophosphorylation ELISA in PC-3 cells; design: endogenous in cells; host or cells: PC-3 prostate cancer cells (ATCC #CRL-1435); conditions: cellular activity, HGF-stimulated, phospho-Met ELISA, read-out: c-Met IC50
Procedure: PC-3 prostate cancer cells (ATCC #CRL-1435) were seeded at 4×10^4 cells/well onto 24-well plates (Greiner #662165), in DMEM (Thermo Fisher #11995-040) containing 10% FBS (Thermo Fisher #26140-079), 1% MEM NEAA (Thermo Fisher #11140-050), 1% GlutaMax (Thermo Fisher #35050-061), and 1% Penicillin Streptomycin (Thermo Fisher #15140-122). PC-3 cells were incubated at 37° C., 5% CO2 for 24 h and then starved for 3 h in serum-free medium. Test compounds were serially diluted to produce an 8-point dose curve in fresh serum-free medium to a final concentration of 0.3% DMSO (vehicle) and added to the cells and incubated for 1 h. Cells were then stimulated with 100 ng/mL recombinant human HGF (R&D Systems #294-HG-250) for 10 min, washed with cold PBS and immediately lysed with 130 μL of cold 1× lysis buffer [20 mM Tris, 137 mM sodium chloride, 2 mM EDTA, 10% glycerol, 1% NP-40 alternative, 1 mM activated sodium orthovanadate, 1 mM PefaBloc SC (Sigma-Aldrich #11429868001), protease/phosphatase inhibitor tablet (Thermo Fisher #A32959)]. Lysates were clarified by centrifugation and 100 μL/well added into the PathScan phospho-Met (panTyr) Sandwich ELISA (Cell Signaling Technology #7333). Assay was performed according to manufacturer's instructions. Positive control wells (100% activity) contained HGF-stimulated, DMSO-treated cell lysates. Negative control wells (0% activity) contained HGF-stimulated, reference inhibitor-treated cell lysates. IC50 values were calculated by nonlinear regression analysis using a 4-parameter logistic curve fit in ActivityBase XE (IDBS).

KDR = KDR (Homo sapiens, UniProt P35968); assay: KDR autophosphorylation ELISA in HUVEC cells; design: endogenous in cells; host or cells: HUVEC (Lonza #C2519A); conditions: cellular activity, VEGF165-stimulated, phospho-KDR ELISA
Procedure: Human umbilical vein endothelial cells or HUVEC (Lonza #C2519A) were seeded at 2×10^4 cells/well onto 96-well plates (Corning #3904), in EGM-2 growth medium (Lonza #CC-3162) containing 1% Penicillin Streptomycin (Thermo Fisher #15140-122). HUVEC cells were incubated at 37° C., 5% CO2 for 24 h and then starved for 24 h in serum-free EBM-2 basal medium (Lonza #CC-3156) containing 1% Penicillin Streptomycin. Test compounds were serially diluted to produce an 8-point dose curve in fresh serum-free medium to a final concentration of 0.3% DMSO (vehicle) and added to the cells and incubated for 1 h. Cells were then stimulated with 100 ng/mL recombinant human VEGF165 (R&D Systems #293-VE-500) for 5 min, washed with cold PBS, and immediately lysed with 130 μL of cold 1× lysis buffer [20 mM Tris, 137 mM sodium chloride, 2 mM EDTA, 10% glycerol, 1% NP-40 alternative, 1 mM activated sodium orthovanadate, 1 mM PefaBloc SC (Sigma-Aldrich #11429868001), protease/phosphatase inhibitor tablet (Thermo Fisher #A32959)]. Lysates were collected and 100 μL/well added into the human phospho-KDR DuoSet IC ELISA (R&D Systems #DYC1766-2). Assay was performed according to manufacturer's instructions and sample phospho-KDR concentrations were extrapolated using human phospho-KDR control (R&D Systems #841421) as a standard. Positive control wells (100% activity) contained VEGF165-stimulated, DMSO-treated cell lysates. Negative control wells (0% activity) contained non-stimulated cell lysates. IC50 values were calculated by nonlinear regression analysis using a 4-parameter logistic curve fit in ActivityBase XE (IDBS).

AXL = biological target: T1, AXL (Homo sapiens, UniProt P30530); assay: AXL autophosphorylation ELISA in A-172 cells; conditions: cellular activity, Gas6-stimulated, phospho-AXL ELISA
T1 construct: endogenous in cells; host or cells: A-172 glioblastoma cells (ATCC #CRL-1620)
T1 sequence (P30530 26-894): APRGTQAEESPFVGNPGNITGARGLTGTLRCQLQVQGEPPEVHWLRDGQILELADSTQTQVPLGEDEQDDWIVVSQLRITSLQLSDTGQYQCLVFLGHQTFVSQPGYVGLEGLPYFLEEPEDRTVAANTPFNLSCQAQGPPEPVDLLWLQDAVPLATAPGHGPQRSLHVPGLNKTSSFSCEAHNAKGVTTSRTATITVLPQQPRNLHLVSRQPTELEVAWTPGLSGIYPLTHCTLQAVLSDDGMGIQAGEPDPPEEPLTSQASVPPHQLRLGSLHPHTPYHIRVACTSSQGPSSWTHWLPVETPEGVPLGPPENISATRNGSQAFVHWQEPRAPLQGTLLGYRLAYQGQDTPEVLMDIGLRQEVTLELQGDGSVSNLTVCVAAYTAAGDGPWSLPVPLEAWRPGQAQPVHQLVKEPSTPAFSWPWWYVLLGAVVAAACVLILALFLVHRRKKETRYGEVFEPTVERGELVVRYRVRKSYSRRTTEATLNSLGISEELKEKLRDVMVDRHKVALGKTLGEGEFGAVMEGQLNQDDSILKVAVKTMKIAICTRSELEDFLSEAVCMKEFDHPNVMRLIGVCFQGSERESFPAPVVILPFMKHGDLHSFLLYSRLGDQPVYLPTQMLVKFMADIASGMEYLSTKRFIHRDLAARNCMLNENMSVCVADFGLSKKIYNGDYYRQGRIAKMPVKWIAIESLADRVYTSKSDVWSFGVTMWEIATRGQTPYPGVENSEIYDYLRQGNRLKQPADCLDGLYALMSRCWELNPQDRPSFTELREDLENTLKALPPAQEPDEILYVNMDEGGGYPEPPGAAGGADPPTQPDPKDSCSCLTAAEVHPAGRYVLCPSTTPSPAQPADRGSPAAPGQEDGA
Procedure: A-172 glioblastoma cells (ATCC #CRL-1620) were seeded at 2.5×10^5 cells/well onto 24-well plates (Greiner #662165), in DMEM (Thermo Fisher #11995-040) containing 10% FBS (Thermo Fisher #26140-079), 1% MEM NEAA (Thermo Fisher #11140-050), 1% GlutaMax (Thermo Fisher #35050-061) and 1% Penicillin Streptomycin (Thermo Fisher #15140-122). A-172 cells were incubated at 37° C., 5% CO2 for 24 h and then starved for 24 h in serum-free medium. Test compounds were serially diluted to produce an 8-point dose curve in fresh serum-free medium to a final concentration of 0.3% DMSO (vehicle) and added to the cells and incubated for 1 h. Cells were then stimulated with 1 μg/mL recombinant human Gas6 (R&D Systems #885-GSB-500) for 15 min, washed with cold PBS and immediately lysed with 150 μL of cold 1× lysis buffer [20 mM Tris, 137 mM sodium chloride, 2 mM EDTA, 10% glycerol, 1% NP-40 alternative, 1 mM activated sodium orthovanadate, 1 mM PefaBloc SC (Sigma-Aldrich #11429868001), protease/phosphatase inhibitor tablet (Thermo Fisher #A32959)]. Lysates were collected and 100 μL/well added into the human phospho-AXL DuoSet IC ELISA (R&D Systems #DYC2228-2). Assay was performed according to manufacturer's instructions and sample phospho-AXL concentrations were extrapolated using human phospho-AXL control (R&D Systems #841645) as a standard. Positive control wells (100% activity) contained Gas6-stimulated, DMSO-treated cell lysates. Negative control wells (0% activity) contained Gas6-stimulated, reference inhibitor-treated cell lysates. IC50 values were calculated by nonlinear regression analysis using a 4-parameter logistic curve fit in ActivityBase XE (IDBS).

Chain of Met (P08581 25-1390): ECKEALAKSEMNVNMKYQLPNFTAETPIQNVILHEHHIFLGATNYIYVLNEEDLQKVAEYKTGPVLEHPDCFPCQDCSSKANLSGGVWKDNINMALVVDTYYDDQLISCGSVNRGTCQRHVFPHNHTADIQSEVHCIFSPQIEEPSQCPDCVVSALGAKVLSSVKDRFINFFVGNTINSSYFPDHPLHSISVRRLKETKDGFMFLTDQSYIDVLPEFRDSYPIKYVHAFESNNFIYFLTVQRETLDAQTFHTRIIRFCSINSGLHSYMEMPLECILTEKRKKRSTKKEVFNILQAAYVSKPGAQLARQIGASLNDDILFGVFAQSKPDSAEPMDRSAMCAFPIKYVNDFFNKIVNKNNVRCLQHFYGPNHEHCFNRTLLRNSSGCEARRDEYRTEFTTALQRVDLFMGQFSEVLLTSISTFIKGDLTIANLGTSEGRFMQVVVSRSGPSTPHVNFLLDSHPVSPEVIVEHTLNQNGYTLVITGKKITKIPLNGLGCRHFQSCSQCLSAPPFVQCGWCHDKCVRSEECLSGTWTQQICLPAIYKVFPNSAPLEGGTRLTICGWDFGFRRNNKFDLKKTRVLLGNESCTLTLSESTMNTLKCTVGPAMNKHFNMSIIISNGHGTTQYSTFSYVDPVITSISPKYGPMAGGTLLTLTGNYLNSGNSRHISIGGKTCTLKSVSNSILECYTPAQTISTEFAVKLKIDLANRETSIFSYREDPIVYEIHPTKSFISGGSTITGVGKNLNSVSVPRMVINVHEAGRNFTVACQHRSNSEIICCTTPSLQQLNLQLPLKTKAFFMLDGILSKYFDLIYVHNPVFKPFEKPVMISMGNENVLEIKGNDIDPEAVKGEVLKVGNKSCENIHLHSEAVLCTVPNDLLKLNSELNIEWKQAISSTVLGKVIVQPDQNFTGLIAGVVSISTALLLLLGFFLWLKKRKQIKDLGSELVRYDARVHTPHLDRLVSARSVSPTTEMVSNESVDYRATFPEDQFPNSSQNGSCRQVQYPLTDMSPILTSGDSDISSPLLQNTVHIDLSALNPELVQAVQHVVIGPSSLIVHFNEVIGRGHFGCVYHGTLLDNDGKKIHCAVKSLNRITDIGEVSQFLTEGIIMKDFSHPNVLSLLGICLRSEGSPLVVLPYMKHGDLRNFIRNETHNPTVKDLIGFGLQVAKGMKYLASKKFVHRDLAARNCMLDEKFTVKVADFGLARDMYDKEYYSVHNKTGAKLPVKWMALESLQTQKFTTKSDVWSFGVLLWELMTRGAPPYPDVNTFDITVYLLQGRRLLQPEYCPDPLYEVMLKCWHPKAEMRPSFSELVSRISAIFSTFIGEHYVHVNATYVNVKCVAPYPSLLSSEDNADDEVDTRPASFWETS
Chain of KDR (P35968 20-1356): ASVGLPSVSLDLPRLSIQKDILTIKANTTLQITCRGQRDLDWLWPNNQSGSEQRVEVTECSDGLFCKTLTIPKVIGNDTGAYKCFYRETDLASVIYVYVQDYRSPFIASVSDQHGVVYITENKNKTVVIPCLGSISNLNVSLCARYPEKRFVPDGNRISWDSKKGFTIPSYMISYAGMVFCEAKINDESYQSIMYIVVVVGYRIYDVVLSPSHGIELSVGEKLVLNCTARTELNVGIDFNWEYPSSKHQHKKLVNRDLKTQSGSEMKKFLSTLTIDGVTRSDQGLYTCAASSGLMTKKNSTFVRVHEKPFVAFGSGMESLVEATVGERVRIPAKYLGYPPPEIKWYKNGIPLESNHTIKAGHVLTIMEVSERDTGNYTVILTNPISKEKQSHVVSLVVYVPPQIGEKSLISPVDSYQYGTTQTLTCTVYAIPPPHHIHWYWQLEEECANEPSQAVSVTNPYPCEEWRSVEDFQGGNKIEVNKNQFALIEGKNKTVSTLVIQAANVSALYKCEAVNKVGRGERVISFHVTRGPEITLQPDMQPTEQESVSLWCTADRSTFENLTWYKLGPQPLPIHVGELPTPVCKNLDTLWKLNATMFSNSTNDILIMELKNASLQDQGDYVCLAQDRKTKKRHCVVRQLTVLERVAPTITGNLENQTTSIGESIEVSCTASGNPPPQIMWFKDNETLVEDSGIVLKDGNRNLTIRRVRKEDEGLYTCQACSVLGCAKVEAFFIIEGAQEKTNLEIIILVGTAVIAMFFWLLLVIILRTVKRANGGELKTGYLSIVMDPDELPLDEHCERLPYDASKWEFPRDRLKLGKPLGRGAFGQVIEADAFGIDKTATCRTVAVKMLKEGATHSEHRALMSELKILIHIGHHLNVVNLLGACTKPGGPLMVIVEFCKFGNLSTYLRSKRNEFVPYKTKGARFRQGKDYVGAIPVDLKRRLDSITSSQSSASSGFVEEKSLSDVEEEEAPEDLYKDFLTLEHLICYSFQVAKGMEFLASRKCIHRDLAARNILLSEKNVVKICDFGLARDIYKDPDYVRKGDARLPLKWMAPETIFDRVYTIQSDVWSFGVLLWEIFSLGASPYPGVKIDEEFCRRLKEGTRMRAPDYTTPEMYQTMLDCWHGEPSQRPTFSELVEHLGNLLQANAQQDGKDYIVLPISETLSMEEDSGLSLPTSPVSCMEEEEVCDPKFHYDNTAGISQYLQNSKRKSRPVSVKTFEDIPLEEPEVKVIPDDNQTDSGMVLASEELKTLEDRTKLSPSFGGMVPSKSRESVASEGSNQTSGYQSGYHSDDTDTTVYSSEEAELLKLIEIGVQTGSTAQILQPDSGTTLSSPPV

SMILES | IC50 (Met) [nM] | IC50 (KDR) [nM] | IC50 (AXL) [nM]
Cc1ccc(-c2ccc3c(Oc4ccc(NC(=O)C5(C(=O)Nc6ccc(F)cc6)CC5)cc4)ccnc3c2)cn1 [Compound 37, 1-N′-(4-Fluorophenyl)-1-N-[4-[7-(6-methylpyridin-3-yl)quinolin-4-yl]oxyphenyl]cyclopropane-1,1-dicarboxamide] | 10 to 100 | 10 to 100 | 100 to 300
O=C(Nc1ccc(F)cc1)C1(C(=O)Nc2ccc(Oc3ccnc4cc(-c5ccnc(C(F)(F)F)c5)ccc34)cc2)CC1 [Compound 36, 1-N′-(4-Fluorophenyl)-1-N-[4-[7-[2-(trifluoromethyl)pyridin-4-yl]quinolin-4-yl]oxyphenyl]cyclopropane-1,1-dicarboxamide] | 100 to 300 | – | –
Cc1cc2c(Oc3ccc(NC(=O)C4(C(=O)Nc5ccc(F)cc5)CC4)cc3)ccnc2cc1-c1cn[nH]c1 [Compound 106, 1-N′-(4-Fluorophenyl)-1-N-[4-[6-methyl-7-(1H-pyrazol-4-yl)quinolin-4-yl]oxyphenyl]cyclopropane-1,1-dicarboxamide] | 10 to 100 | ≤ 10 | 10 to 100
O=C(Nc1ccc(F)cc1)C1(C(=O)Nc2ccc(Oc3ccnc4cc(-c5cnc6[nH]ccc6c5)ccc34)cc2)CC1 [Compound 44, 1-N′-(4-Fluorophenyl)-1-N-[4-[7-(1H-pyrrolo[2,3-b]pyridin-5-yl)quinolin-4-yl]oxyphenyl]cyclopropane-1,1-dicarboxamide] | 100 to 300 | – | –
O=C(Nc1ccc(F)cc1)C1(C(=O)Nc2ccc(Oc3ccnc4cc(-c5ccc(C6CC6)nc5)ccc34)cc2)CC1 [Compound 43, 1-N-[4-[7-(6-Cyclopropylpyridin-3-yl)quinolin-4-yl]oxyphenyl]-1-N′-(4-fluorophenyl)cyclopropane-1,1-dicarboxamide] | 100 to 300 | 10 to 100 | 100 to 300
O=C(Nc1ccc(F)cc1)C1(C(=O)Nc2ccc(Oc3ccnc4cc(C5CCOC5)ccc34)cc2)CC1 (single isomer, unassigned) [Compound 89, 1-N′-(4-Fluorophenyl)-1-N-[4-[7-[oxolan-3-yl]quinolin-4-yl]oxyphenyl]cyclopropane-1,1-dicarboxamide] | 10 to 100 | > 300 | > 300
CN(C(=O)C1(C(=O)Nc2ccc(Oc3ccnc4cc(-c5cnn(C(F)F)c5)ccc34)cc2)CC1)c1ccc(F)cc1 [Compound 126, 1-N-[4-[7-[1-(Difluoromethyl)pyrazol-4-yl]quinolin-4-yl]oxyphenyl]-1-N′-(4-fluorophenyl)-1-N′-methylcyclopropane-1,1-dicarboxamide] | > 300 | – | –

Continued, values first:

IC50 (Met) [nM] | IC50 (KDR) [nM] | IC50 (AXL) [nM] | SMILES
100 to 300 | – | 100 to 300 | O=C(Nc1ccc(F)cc1)C1(C(=O)Nc2ccc(Oc3ccnc4cc(-c5ccc(N6CCCC6)nc5)ccc34)cc2)CC1 [Compound 49, 1-N′-(4-Fluorophenyl)-1-N-[4-[7-(6-pyrrolidin-1-ylpyridin-3-yl)quinolin-4-yl]oxyphenyl]cyclopropane-1,1-dicarboxamide]
10 to 100 | – | – | Cc1cc(-c2ccc3c(Oc4ccc(NC(=O)C5(C(=O)Nc6ccc(F)cc6)CC5)cc4)ccnc3c2)cc(C)n1 [Compound 32, 1-N-[4-[7-(2,6-Dimethylpyridin-4-yl)quinolin-4-yl]oxyphenyl]-1-N′-(4-fluorophenyl)cyclopropane-1,1-dicarboxamide]
10 to 100 | > 300 | > 300 | O=C(Nc1ccc(F)cc1)C1(C(=O)Nc2ccc(Oc3ccnc4cc(C5CCOC5)ccc34)cc2)CC1 (single isomer, unassigned) [Compound 88, 1-N′-(4-Fluorophenyl)-1-N-[4-[7-[oxolan-3-yl]quinolin-4-yl]oxyphenyl]cyclopropane-1,1-dicarboxamide]
100 to 300 | – | – | O=C(Nc1ccc(F)cc1)C1(C(=O)Nc2ccc(Oc3ccnc4cc(-c5cc(C(F)(F)F)[nH]n5)ccc34)cc2)CC1 [Compound 100, 1-N′-(4-Fluorophenyl)-1-N-[4-[7-[5-(trifluoromethyl)-1H-pyrazol-3-yl]quinolin-4-yl]oxyphenyl]cyclopropane-1,1-dicarboxamide]
100 to 300 | – | – | O=C(Nc1ccc(F)cc1)C1(C(=O)Nc2ccc(Oc3ccnc4cc(-c5cncc(C(F)(F)F)c5)ccc34)cc2)CC1 [Compound 48, 1-N′-(4-Fluorophenyl)-1-N-[4-[7-[5-(trifluoromethyl)pyridin-3-yl]quinolin-4-yl]oxyphenyl]cyclopropane-1,1-dicarboxamide]
100 to 300 | – | – | O=C(Nc1ccc(F)cc1)C1(C(=O)Nc2ccc(Oc3ccnc4cc(-c5ccc(C(F)(F)F)nc5)ccc34)cc2)CC1 [Compound 35, 1-N′-(4-Fluorophenyl)-1-N-[4-[7-[6-(trifluoromethyl)pyridin-3-yl]quinolin-4-yl]oxyphenyl]cyclopropane-1,1-dicarboxamide]
